Data published in patent US9371330B2, “Substituted pyrazino[1,2-a]pyrimidines useful as CBP/catenin antagonists for enhancing asymmetric division of somatic stem cells” (University of Southern California, priority 2011, dated 2016).

Key:
[1] = tested on: aquaporin 1; assay: ex vivo human skin assay, qRT-PCR of aquaporin 1; type: cell-based; conditions: 24 hrs; 5 uM ICG-001, 5 uM methylated ICG-001, 1 ug/ml RA
Description: Methods. Ex Vivo human skin assay culture conditions were based upon a paper by Varani J et al Experimental and Molecular Pathology, 2004.
Briefly, human skin (surgical waste from plastic surgery procedures) was obtained and the subcutaneous layer of fat was trimmed manually with a scalpel. The skin was then cut into small fragments about 2 mm square and placed in 6 well plates. 1 ml of keratinocyte culture medium (Gibco 10724-011) with 1% P/S (penstrep antibiotic) was added to each well. The epidermis, bathed in media was placed facing up. On the next day (overnight culture in the media above), the skin fragments were transferred to fresh wells that contained either 5 uM ICG-001, 5-uM methylated ICG-001 or 1 ug/ml of retinoic acid (RA). After 24 hrs, skin samples in culture were removed for RNA isolation and qRT-PCR analysis of genes of interest (e.g. elastin (a gene involved in skin appearance and pliability (e.g., wrinkling) and aquaporin 1, which is involved with hydration.

[2] = tested on: SW620 xenograft; assay: nude mouse SW620 xenograft model of colon cancer; conditions: in vivo
Description: Cancer. The importance of Wnt signaling in colorectal cancer is undisputed. Applicant's investigation on the therapeutic utility of ICG-001 therefore quite naturally began with colon cancer.

[3] = topical treatment of pregnant mice throughout pregnancy, offspring outcome; type: in vivo, mouse; conditions: mothers treated topically 0.5M
Description: Acute Promyelocytic Leukemia (APL) is unique among myeloid leukemias due to its sensitivity to all-trans retinoic acid (ATRA), a derivative of vitamin A. Treatment with ATRA dissociates the NCOR-HDACL complex from RAR and allows DNA transcription and differentiation of the immature leukemic promyelocytes into mature granulocytes by targeting the oncogenic transcription factor and its aberrant action. […] A large number of scientific studies have also investigated a possible role for vitamin D in cancer prevention, including colon, prostate, breast, pancreatic and skin cancer. […] However, there are also reports of synergistic effects on the activation of gene expression by ATRA and Wnt for example (47). […] This is the same region of these coactivator proteins (i.e., CBP and p300) that partners with catenin (both beta and gamma) and the CBP/catenin antagonists (e.g., ICG-001) also bind to this region. These nuclear receptor ligands have many of the same differentiating effects on stem cell populations that applicant has observed with specific CBP/catenin antagonists. Although, both Vitamin A and D are required during development and have many beneficial health effects in adulthood, both are teratogenic at high levels. […]

[4] = tested on: mitotic cells in the ventricular zone (VZ); assay: symmetric versus asymmetric divisions (Par3 distribution) in the ventricular zone of mouse embryos; type: in vivo; conditions: topical or oral administration to pregnant mice
Description: Taking advantage of the ready uptake and penetration through the placental barrier of applicant's small molecule Wnt modulators, applicant designed a series of experiments to investigate symmetric versus asymmetric divisions in the ventricular zone (VZ) of the brain during mouse embryonic development. Timed pregnant mice were topically treated for various time periods (1-3 days) with DMSO (vehicle control), the CBP/catenin antagonist ICG-001 or the p300/catenin antagonist IQ-1. Using a previously described protocol (56), the localization of […] (Par3) and DNA was examined in mitotic cells in the VZ. Par3 distributes symmetrically in cells that divide symmetrically and asymmetrically in cells that divide asymmetrically, whereas the DNA distributes symmetrically between the 2 cells. Using fluorescence microscopy, the percentage of mitotic cells dividing symmetrically or asymmetrically could be quantified. […] Antagonizing the CBP/catenin interaction with ICG-001 had no apparent effect yielding similarly, approximately 21% asymmetric divisions. […] Importantly, this decrease in asymmetric divisions upon treatment with IQ-1 could be rescued back essentially to control levels (i.e. ˜21%) by treatment with a 2-fold excess of ICG-001. Even further divergence in symmetric versus asymmetric divisions could be seen upon prolonged treatments. For example, treatment with IQ-1 (i.e., antagonizing p300/catenin interaction leading to increased usage of CBP) for 3 days (E13.5-16.5) decreased asymmetric divisions compared to control from 31% to 7%. […] This reporter mouse expresses EGFP, driven by the Tis21 promoter, in cells that have undergone neurogenic differentiative divisions.
For example, Bultje et al (Bultje R Neuron 63, 189-202, 2009) describe an assay to measure asymmetric distributions in the ventricular zone (vz) to evaluate asymmetric divisions during neurogenesis. Essentially this involves treating the animal (either adult or in utero) for a set period of time with compounds (either p.o., s.c., i.v. or topically) with compounds and then sacrificing the animal and examining the Par3 distribution (e.g., via immunohistochemistry) in mitotic cells vs. DNA distribution (e.g., using DAPI staining) Par3 distributes equally among the two daughter cells during symmetric division and unequally (essentially all in one daughter cell) during asymmetric differentiation.

[5] = tested on: drug resistant leukemia stem cells; assay: NOD/SCID/IL2rγ-/- mouse model of engrafted human CML; type: in vivo
Description: Chronic myelogenous leukemia (CML). Despite the stunning clinical success achieved to date in chronic phase CML patients treated with the BCR-ABL antagonist Gleevec/Imatinib (IM), responses in advanced phase patients are often short-lived, and patients invariably undergo disease progression. Furthermore, resistance to IM develops in 2% to 4% of patients annually and IM dose escalation is generally not sufficient to control the disease. Several mechanisms that contribute to tyrosine kinase inhibitor (TKI) resistance have been proposed including the insensitivity of quiescent CML stem cells to TKIs due to low expression of BCR-ABL and the emergence of drug resistant leukemic clones associated with increased nuclear catenin levels, a hallmark of increased Wnt/catenin transcription. […] Epigenetic silencing of negative regulators of the Wnt signaling cascade is also frequently associated with leukemias, including CML. […] The mice treated with one course (28 days from day 13-41 after leukemia engraftment) of CBP/catenin antagonist plus bcr-abl antagonist are essentially cured of leukemia and live as long (approximately 2 years) as their littermates that were never engrafted with leukemia.

weight and size of offspring at 6 weeks of age ([3]; ~E0.5 to ~E20): normal weight and size
Compound: O=C1[C@H](Cc2ccc(O)cc2)N2C(=O)CCN(C(=O)NCc3ccccc3)[C@H]2CN1Cc1cccc2ccccc12 [ICG-001]
expression of aquaporin 1 [1]: increase | tumor growth [2]: reducing tumor growth | effects on germ cell populations of offspring ([3]; second generation bred): no deleterious effects on germ cell populations | effect on number of asymmetric divisions [4]: does not affect the number of asymmetric divisions | effect on normal endogenous hematopoiesis ([5]; mouse, in vivo): without deleterious effects to normal endogenous hematopoiesis | elimination of drug resistant leukemia stem cells ([5]; with bcr-abl antagonist): drug resistant leukemia stem cells can be eliminated
